Literature values in US20050176010A1, “Regulation of human transient receptor potential channel” (Bayer HealthCare AG, priority 2002, published 2005).

How the values were obtained:
[1] = target: cold- and menthol-sensitive receptor (CMR1) (Rattus norvegicus, UniProt Q8R455); details: McKemy et al., Nature 2002
mouse TRPM8 = mouse TRPM8 (Mus musculus, UniProt Q8R4D5); details: Peier et al., Cell 2002
cold receptors [2] = details: animals; Lindstrom and Mazieres 1991, Mazieres et al. 1998
cold receptors [3] = details: all tested patients; Geirsson, J. Urol. 1993

cold- and menthol-sensitive receptor (CMR1), sequence (Q8R455 whole entry): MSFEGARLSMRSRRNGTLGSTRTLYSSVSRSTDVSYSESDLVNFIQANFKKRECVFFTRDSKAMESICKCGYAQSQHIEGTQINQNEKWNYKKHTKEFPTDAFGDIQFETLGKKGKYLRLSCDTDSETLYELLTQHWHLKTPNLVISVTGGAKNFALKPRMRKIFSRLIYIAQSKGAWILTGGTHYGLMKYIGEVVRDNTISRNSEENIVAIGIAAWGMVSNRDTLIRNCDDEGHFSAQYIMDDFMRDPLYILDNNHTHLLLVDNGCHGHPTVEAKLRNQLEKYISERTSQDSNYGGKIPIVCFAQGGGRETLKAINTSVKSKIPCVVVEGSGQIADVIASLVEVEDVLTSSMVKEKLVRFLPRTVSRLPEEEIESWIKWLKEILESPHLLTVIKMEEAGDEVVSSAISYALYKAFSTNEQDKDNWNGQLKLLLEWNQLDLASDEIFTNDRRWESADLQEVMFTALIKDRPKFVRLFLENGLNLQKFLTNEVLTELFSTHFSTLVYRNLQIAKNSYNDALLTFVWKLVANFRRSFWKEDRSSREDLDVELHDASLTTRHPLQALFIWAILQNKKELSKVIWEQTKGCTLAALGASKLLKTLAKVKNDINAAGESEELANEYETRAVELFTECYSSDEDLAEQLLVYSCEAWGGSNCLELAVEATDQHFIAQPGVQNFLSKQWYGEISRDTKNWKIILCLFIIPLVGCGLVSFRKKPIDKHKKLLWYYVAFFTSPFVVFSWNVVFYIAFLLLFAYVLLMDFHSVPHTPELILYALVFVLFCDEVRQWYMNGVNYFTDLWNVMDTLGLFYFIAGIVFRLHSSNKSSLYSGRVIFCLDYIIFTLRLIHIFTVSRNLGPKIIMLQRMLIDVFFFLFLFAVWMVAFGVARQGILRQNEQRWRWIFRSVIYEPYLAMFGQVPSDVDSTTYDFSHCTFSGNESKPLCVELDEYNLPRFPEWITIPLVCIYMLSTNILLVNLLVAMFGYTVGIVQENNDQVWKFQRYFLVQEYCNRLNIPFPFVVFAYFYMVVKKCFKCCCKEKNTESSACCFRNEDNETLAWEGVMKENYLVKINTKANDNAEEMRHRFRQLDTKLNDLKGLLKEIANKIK
mouse TRPM8, sequence (Q8R4D5 whole entry): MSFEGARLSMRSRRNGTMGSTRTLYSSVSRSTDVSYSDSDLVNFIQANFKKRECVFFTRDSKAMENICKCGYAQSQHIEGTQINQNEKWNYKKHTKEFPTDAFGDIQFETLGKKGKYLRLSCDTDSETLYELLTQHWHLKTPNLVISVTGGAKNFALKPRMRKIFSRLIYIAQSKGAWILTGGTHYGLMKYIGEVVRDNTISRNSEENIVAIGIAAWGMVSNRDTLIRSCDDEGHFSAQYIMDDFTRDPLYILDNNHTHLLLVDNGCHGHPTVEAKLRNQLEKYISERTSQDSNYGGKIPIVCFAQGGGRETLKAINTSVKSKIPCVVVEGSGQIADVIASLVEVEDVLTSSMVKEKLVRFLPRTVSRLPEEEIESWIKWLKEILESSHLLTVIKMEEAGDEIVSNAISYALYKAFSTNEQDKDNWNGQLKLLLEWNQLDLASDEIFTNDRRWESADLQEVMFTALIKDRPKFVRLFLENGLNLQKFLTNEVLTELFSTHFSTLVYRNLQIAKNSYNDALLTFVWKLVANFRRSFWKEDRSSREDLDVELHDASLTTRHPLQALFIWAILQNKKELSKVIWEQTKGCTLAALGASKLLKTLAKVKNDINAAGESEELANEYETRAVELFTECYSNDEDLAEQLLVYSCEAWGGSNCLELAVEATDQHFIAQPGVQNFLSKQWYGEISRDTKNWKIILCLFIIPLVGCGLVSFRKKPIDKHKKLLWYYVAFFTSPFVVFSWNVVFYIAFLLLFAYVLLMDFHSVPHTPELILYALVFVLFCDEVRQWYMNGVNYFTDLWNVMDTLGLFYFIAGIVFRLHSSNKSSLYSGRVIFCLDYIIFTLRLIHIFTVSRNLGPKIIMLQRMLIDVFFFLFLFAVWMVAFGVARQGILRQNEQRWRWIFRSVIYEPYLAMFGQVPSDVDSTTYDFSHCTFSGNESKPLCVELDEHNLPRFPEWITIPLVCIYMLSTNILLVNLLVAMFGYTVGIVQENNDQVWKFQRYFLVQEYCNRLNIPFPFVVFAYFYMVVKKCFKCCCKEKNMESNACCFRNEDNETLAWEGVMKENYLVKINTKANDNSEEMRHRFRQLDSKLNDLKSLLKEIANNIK

CC1CCC(C(C)C)C(O)C1 (stereo not shown) [menthol]
activation of the channel receptor CMR1 [1]: activated
gating of the ion channel (mouse TRPM8): gated by cold stimuli and menthol
temperature response curve of the bladder cooling reflex (cold receptors [2]): shifts the temperature response curve of the bladder cooling reflex towards higher temperatures
threshold temperature of the cooling reflex (cold receptors [3]): shift of the threshold temperature of the cooling reflex towards a higher value
